This is an account of results in patent publication US20130109682A1, “CYCLIC ETHER COMPOUNDS USEFUL AS KINASE INHIBITORS” (NOVARTIS AG, priority 2010, published 2013).

In test [1] the target is PIM1 (Homo sapiens, UniProt P11309). The experiment in a line: KinaseGlo Pim1 ATP depletion assay. It counts as biochemical. In short, it runs like this:
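2.5 nM PIM1 preincubated 15 min with compound and 40 μM BAD peptide in 50 mM HEPES pH 7.5, 5 mM MgCl2, 1 mM DTT, 0.05% BSA, 2.5% DMSO. The reaction was started with 20 μM ATP (final) and run to about 50% ATP depletion. Remaining ATP read by KinaseGlo Plus luminescence to give IC50.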

The target in test [2] is PIM2 (Homo sapiens, UniProt Q9P1W9). The experiment in a line: KinaseGlo Pim2 ATP depletion assay. In kind it is biochemical. In short, it runs like this: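 Luminescent ATP-depletion read-out of PIM2 phosphorylating BAD peptide (RSRHSSYPAGT-OH). Final conditions: 5 nM PIM2, 4 μM ATP, 10 μM peptide, 2.5% DMSO in 50 mM HEPES pH 7.5, 5 mM MgCl2, 1 mM DTT, 0.05% BSA. Enzyme–peptide preincubated 15 min with compound; reaction run to ~50% ATP depletion.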

The target in test [3] is PIM3 (Homo sapiens, UniProt Q86V86). Kind of test: KinaseGlo Pim3 ATP depletion assay. In kind it is biochemical. The gist of the method: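 Kinase was preincubated 15 min with BAD peptide in HEPES pH 7.5/MgCl2/DTT/BSA before ATP was added. Final concentrations were 40 μM ATP, 100 μM BAD peptide and 2.5% DMSO, with 5 nM enzyme. The reaction ran to ~50% ATP depletion and remaining ATP was read by KinaseGlo Plus luminescence.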
In general terms: Kinase-Glo reads ATP consumption through a luciferase reaction.

For test [4], the target named is GSK3β (Homo sapiens, UniProt P49841). The experiment in a line: GSK3β ATP depletion assay. It counts as biochemical. To be noted: read-out: GSK3b IC50. The gist of the method:
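Human GSK3β (5 nM) preincubated 15 min with 10 μM biotinylated phospho-CREB peptide in pH 7.5 Tris buffer (15 mM MgCl2, 1 mM DTT, 0.1% BSA, 2.5% DMSO). Reaction started with 2 μM ATP and run to about 50% ATP depletion. Remaining ATP measured by KinaseGlo luminescence.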

The test system of test [5] is KMS11 (human myeloma cell line). The experiment in a line: Cell proliferation assay (CellTiter-Glo), KMS11. It counts as cell-based. To be noted: Homo sapiens, KMS-11; KMS11-Luc cells. The gist of the method:
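KMS11 cells in IMDM with 10% FBS and sodium pyruvate, seeded at 2000 cells/well on assay day. Compound added at 2× to equal volume of cells, incubated 3 days at 37° C. Viability read by CellTiter-Glo luminescence; EC50 derived.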
Background: In ATP-based viability assays light output follows the ATP content of the culture.

Test [6] has as its target T1, hERG (Homo sapiens, UniProt Q12809).
T1 construct: host or cells: crude membrane suspension
The experiment in a line: hERG binding assay ([3H] dofetilide displacement). To be noted: dofetilide displacement; read-out: HERGdof IC50. On the procedure:
Compounds of the invention were pipetted into each well of pre-wet 96-well Millipore GF/C filter plates (#MSFCN6B50): 119 μl assay buffer, 1 μl test compound in 100% DMSO (or 100% DMSO only for total binding), 40 μl [3H] dofetilide (12.5 nM, final concentration 2.5 nM; Novartis radioisotope laboratory, East Hanover, N.J., USA, specific activity 15-45 Ci/mmol); 40 μl crude membrane suspension (ca. 15 μg protein). The final concentration of DMSO during the incubation was 0.5%. Incubations were performed at room temperature for 90 min. Non-specific binding (NSB) was defined as the binding remaining in the presence of 25 μM terfenadine (Sigma T9652). The incubations were terminated by rapid filtration on a Millipore filtration manifold, followed by three washes of 200 μA ice-cold assay buffer. The plates were left to dry overnight before adding 40 μA scintillant (MicroScint-20). The plates were then sealed (Sealing Tape SI, Nunc 236366) and read in a Wallac MicroBeta Trilux beta-counter for 1.5 min per well. Compounds were tested as 9-concentration response curves in duplicate, ranging from 30 μM to 3 nM in 1:3 dilution steps. Dilution curves were prepared in 100% DMSO. The reference compound (terfenadine) was tested as an eight-concentration response curve, ranging from 10 μM to 0.6 nM in 1:4 dilution steps.

Each structure is given as a SMILES string.

Sequence of GSK3β (P49841 whole entry, species assumed): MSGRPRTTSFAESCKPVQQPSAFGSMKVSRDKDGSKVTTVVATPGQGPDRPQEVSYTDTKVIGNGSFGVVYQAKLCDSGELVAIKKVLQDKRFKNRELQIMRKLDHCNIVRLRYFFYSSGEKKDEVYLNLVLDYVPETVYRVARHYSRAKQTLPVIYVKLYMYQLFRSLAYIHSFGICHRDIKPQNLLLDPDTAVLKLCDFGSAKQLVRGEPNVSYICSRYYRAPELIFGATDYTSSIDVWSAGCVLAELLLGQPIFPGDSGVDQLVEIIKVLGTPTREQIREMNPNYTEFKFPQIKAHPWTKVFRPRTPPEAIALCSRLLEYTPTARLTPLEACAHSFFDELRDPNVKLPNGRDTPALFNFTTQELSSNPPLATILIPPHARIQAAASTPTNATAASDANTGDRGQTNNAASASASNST
Sequence of PIM2 (Q9P1W9 whole entry): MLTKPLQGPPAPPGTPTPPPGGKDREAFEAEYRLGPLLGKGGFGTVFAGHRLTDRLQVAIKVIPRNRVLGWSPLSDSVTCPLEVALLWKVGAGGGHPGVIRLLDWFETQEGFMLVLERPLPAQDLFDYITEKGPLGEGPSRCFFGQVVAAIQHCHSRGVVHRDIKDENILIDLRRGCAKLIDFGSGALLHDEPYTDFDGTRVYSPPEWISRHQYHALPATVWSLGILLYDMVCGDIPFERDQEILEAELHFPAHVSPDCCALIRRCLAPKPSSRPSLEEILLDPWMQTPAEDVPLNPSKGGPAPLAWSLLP
T1 sequence (Q12809 whole entry): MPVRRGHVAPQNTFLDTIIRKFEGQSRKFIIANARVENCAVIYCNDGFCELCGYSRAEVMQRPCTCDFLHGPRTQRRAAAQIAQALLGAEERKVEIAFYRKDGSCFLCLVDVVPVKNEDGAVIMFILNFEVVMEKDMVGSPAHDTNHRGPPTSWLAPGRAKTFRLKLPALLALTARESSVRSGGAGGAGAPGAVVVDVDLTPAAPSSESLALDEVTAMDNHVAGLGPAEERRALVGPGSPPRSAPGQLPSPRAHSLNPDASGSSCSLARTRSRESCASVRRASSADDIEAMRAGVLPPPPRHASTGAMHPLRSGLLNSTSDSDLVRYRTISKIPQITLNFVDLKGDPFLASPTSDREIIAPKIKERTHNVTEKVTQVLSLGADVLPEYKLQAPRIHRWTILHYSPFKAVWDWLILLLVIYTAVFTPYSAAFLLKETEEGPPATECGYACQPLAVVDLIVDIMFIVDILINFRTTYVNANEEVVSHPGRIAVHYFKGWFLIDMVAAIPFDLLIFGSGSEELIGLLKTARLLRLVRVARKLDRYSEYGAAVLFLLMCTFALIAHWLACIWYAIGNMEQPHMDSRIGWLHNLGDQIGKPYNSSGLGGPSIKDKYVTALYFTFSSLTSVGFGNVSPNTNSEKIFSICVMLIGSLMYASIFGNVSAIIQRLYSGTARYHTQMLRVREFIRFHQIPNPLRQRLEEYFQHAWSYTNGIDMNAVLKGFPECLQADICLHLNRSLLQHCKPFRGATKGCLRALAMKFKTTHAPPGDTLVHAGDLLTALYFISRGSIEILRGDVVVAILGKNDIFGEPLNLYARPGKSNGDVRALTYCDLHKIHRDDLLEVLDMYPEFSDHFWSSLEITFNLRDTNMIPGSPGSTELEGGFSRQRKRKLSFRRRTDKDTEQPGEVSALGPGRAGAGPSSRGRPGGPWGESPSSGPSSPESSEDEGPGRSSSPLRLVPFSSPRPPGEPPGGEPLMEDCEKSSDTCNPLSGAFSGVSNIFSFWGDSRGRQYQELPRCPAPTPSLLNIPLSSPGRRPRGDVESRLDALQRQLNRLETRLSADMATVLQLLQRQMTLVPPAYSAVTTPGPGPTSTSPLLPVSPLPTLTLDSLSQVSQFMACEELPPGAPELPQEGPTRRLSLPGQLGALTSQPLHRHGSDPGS
Sequence of PIM1 (P11309 whole entry): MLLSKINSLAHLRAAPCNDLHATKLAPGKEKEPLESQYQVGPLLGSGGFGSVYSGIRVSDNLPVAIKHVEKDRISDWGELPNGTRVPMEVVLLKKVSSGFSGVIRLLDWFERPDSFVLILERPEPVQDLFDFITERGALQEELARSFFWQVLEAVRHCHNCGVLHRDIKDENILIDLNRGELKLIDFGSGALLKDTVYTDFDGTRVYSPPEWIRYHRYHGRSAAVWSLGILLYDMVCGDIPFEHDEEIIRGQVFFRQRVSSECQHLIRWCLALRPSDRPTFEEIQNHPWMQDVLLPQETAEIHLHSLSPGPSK

In general, IC50 refers to the concentration that gives 50% inhibition. By EC50 is commonly meant the concentration that produces a half-maximal response. A lower EC50 goes with higher potency in that assay. For `C[C@@H]1O[C@H](c2ccncc2NC(=O)c2ccc(F)c(-c3c(F)cccc3F)n2)C[C@H](N)[C@H]1O` [Example 115, N-(4-((2S,4S,5R,6S)-4-amino-5-hydroxy-6-methyltetrahydro-2H-pyran-2-yl)pyridin-3-yl)-6-(2,6-difluorophenyl)-5-fluoropicolinamide], the IC50 in test [1] was determined as 1 nM; in test [2] it was 5 nM; in test [3], 2 nM; in test [4], 225 nM; in test [6], 22000 nM. The molecule also registered an EC50 in test [5] of 1300 nM.

Take `C[C@@H]1C[C@H](N)C[C@H](c2ccncc2NC(=O)c2csc(-c3c(F)cccc3F)n2)O1` [Example 121, N-(4-((2R,4S,6R)-4-amino-6-methyltetrahydro-2H-pyran-2-yl)pyridin-3-yl)-2-(2,6-difluorophenyl)thiazole-4-carboxamide]: the IC50 in test [1] worked out at 9 nM; in test [2], 795 nM; in test [3] it was 44 nM; in test [4], 3230 nM; in test [6], 10000 nM. This molecule yielded an EC50 in test [5] of 4700 nM.

Regarding `C[C@@H]1C[C@H](N)C[C@H](c2ccncc2NC(=O)c2ccc(F)c(-c3c(F)cccc3F)n2)O1` [Example 122, N-(4-((2R,4S,6R)-4-amino-6-methyltetrahydro-2H-pyran-2-yl)pyridin-3-yl)-6-(2,6-difluorophenyl)-5-fluoropicolinamide], the IC50 amounted to 2 nM in test [1]; 45 nM in test [2]; 10 nM in test [3]; 12300 nM in test [4]; 2000 nM in test [6]. For the same molecule, it took 4700 nM to reach a half-maximal effect in test [5] (EC50).

Turning to `C[C@H]1C[C@@H](N)C[C@@H](c2ccncc2NC(=O)c2csc(-c3c(F)cccc3F)n2)O1` [Example 123, N-(4-((2S,4R,6S)-4-amino-6-methyltetrahydro-2H-pyran-2-yl)pyridin-3-yl)-2-(2,6-difluorophenyl)thiazole-4-carboxamide], the concentration for half-maximal inhibition (IC50) in test [1] amounted to 1 nM; in test [2] it was 44 nM; in test [3], 7 nM; in test [4] it was 421 nM; in test [6], 12000 nM. For the same molecule, it took 4200 nM to reach a half-maximal effect in test [5] (EC50).

For `C[C@H]1C[C@@H](N)C[C@@H](c2ccncc2NC(=O)c2ccc(F)c(-c3c(F)cccc3F)n2)O1` [Example 124, N-(4-((2S,4R,6S)-4-amino-6-methyltetrahydro-2H-pyran-2-yl)pyridin-3-yl)-6-(2,6-difluorophenyl)-5-fluoropicolinamide], the IC50 in test [1] worked out at 1 nM; in test [2], 5 nM; in test [3], 2 nM; in test [4] it was 3400 nM; in test [6], 3000 nM. This molecule also gave an EC50 in test [5] of 1600 nM.

For `O=C(Nc1cnccc1[C@H]1C[C@@H](O)CCO1)c1ccc(F)c(-c2c(F)cccc2F)n1` [Example 129, 6-(2,6-difluorophenyl)-5-fluoro-N-(4-((2R,4S)-4-hydroxytetrahydro-2H-pyran-2-yl)pyridin-3-yl)picolinamide], the IC50 in test [1] is 2 nM; in test [2] it was 147 nM; in test [3] it was 13 nM; in test [4], 361 nM; in test [6] it was greater than 30000 nM. For the same molecule, the EC50 in test [5] was greater than 10000 nM.
